Entries after “also recorded” stand apart in the source; their conditions may differ.
How the values were obtained:
[1] = system: INS-1E cells; experiment: Luciferase Insulin Secretion Assay (proinsulin-Gaussia luciferase reporter); type: cell-based, rat; conditions: INS-1E cells; 2.8 mM vs 16.7 mM glucose
[2] = system: cAMP; experiment: cAMP HTRF assay (Cisbio); type: cell-based; conditions: HTRF competition assay; increase in cAMP seen as decrease in signal
From the text: FIG. 9 depicts the quantification of cAMP activity in cells treated with the indicated compound in a HTRF assay from Cisbio.
(§1) Further investigation into Compound 8 included measuring levels of the secondary messengers cAMP (FIG. 9) and IP-1 (not shown) in treated cells, as compounds that increase these secondary messengers are known to augment insulin secretion, though often in ways that are not beta-cell specific.
CellTiter-Glo (Promega) and the cAMP Dynamic-2 HTRF assay (Cisbio) were used according to the manufacturers' instructions. Luciferase secretion and CellTiter-Glo experiments were performed using a 1 hr incubation with compound, whereas the cAMP assay was performed using a 30 min incubation. Secretion experiments were run in KRB buffer; all other experiments were run in standard INS-1E medium.

[3] = system: IP-1; experiment: IP-1 secondary messenger level in treated cells; type: cell-based; conditions: treated cells (data not shown)
From the text: as §1

[4] = Microsome t1/2, mouse; type: in vitro ADME; conditions: Mouse (CD-1) microsomes
Description: The pharmacokinetic activity profile of Compound 8 was assessed by various standard in vitro measurements. Measurements were performed on human, mouse (CD-1) and rat (SD) microsomes to determine the t1/2, the plasma protein binding (“PPB”) and the plasma stability (“PS”).

[5] = Plasma stability, human; type: in vitro ADME
Description: Measurements were performed on human, mouse (CD-1) and rat (SD) microsomes to determine the t1/2, the plasma protein binding (“PPB”) and the plasma stability (“PS”).

half-life [4]: 4.6 h
PS [5]: 106.2 % remaining
Structure (SMILES): Cc1cccc(NC(=O)c2ccc(OCc3c(C)noc3C)cc2)c1C [Compound 8]
glucose-dependent (glucose-stimulated) insulin secretion, luciferase reporter [1]: significant increase in glucose-dependent insulin secretion; also recorded: dose-dependent effect; also recorded: more effective than even the positive control, forskolin
cAMP level [2]: did not increase levels
IP-1 level [3]: did not increase levels
